Laboratory results published in US12459922B2 (Gilead Sciences, Inc., priority 2022, dated 2025).

system: endogenous cellular STAT1 (phosphorylated at Tyr701) in NCI-H1373 cells; assay: Phospho-STAT1 (Tyr701) LANCE Ultra TR-FRET Detection Assay; assay type: cell-based; conditions: Homo sapiens, NCI-H1373, 48 h, phospho-STAT1 (Tyr701) induction, read-out: NH1373 pSTAT1 EC50

Row | SMILES | EC50 [nM]
1 | C[C@@H](CCCn1ccc2cc(-c3nccc(N)n3)c(F)cc2c1=O)Nc1cn[nH]c(=O)c1C(F)(F)F [Example 198, (S)-6-(4-aminopyrimidin-2-yl)-7-fluoro-2-(4-((6-oxo-5-(trifluoromethyl)-1,6-dihydropyridazin-4-yl)amino)pentyl)isoquinolin-1(2H)-one] | 276
2 | C[C@@H](CCCn1ccc2cc(-c3ncc(N)cn3)c(F)cc2c1=O)Nc1cn[nH]c(=O)c1C(F)(F)F [Example 199, (S)-6-(5-aminopyrimidin-2-yl)-7-fluoro-2-(4-((6-oxo-5-(trifluoromethyl)-1,6-dihydropyridazin-4-yl)amino)pentyl)isoquinolin-1(2H)-one] | 317
3 | C[C@@H](CCCn1cnc2cc(-c3ncc(C(F)(F)F)c(N4CCOCC4)n3)c(F)cc2c1=O)Nc1cn[nH]c(=O)c1C(F)(F)F [Example 201, (S)-6-fluoro-7-(4-morpholino-5-(trifluoromethyl)pyrimidin-2-yl)-3-(4-((6-oxo-5-(trifluoromethyl)-1,6-dihydropyridazin-4-yl)amino)pentyl)quinazolin-4(3H)-one] | 4.03
4 | C[C@@H](CCCn1ccc2cc(-c3ncc(Cl)c(N)n3)c(F)cc2c1=O)Nc1cn[nH]c(=O)c1C(F)(F)F [Example 202, (S)-6-(4-amino-5-chloropyrimidin-2-yl)-7-fluoro-2-(4-((6-oxo-5-(trifluoromethyl)-1,6-dihydropyridazin-4-yl)amino)pentyl)isoquinolin-1(2H)-one] | 1.84
5 | C[C@@H](CCCn1cnc2cc(-c3cc4c(cn3)C(F)(F)CC4)c(F)cc2c1=O)Nc1cn[nH]c(=O)c1C(F)(F)F [Example 204] | 45.1
6 | COc1cnc(-c2cc3ccn(CCC[C@H](C)Nc4cn[nH]c(=O)c4C(F)(F)F)c(=O)c3cc2F)nc1N1CC2(COC2)C1 [Example 205] | 75.8
7 | COc1cnc(-c2cc3ccn(CCC[C@H](C)Nc4cn[nH]c(=O)c4C(F)(F)F)c(=O)c3cc2F)nc1N1CC(O)C1 [Example 207] | 157
8 | COc1cnc(-c2cc3ccn(CCC[C@H](C)Nc4cn[nH]c(=O)c4C(F)(F)F)c(=O)c3cc2F)nc1N1CC(F)(F)C1 [Example 210] | 132
9 | C[C@@H](CCCn1cnc2cc(-c3ccc(C(F)(F)F)c(N)n3)c(F)cc2c1=O)Nc1cn[nH]c(=O)c1C(F)(F)F [Example 212] | 36.6
10 | C[C@@H](CCCn1ccc2cc(-c3ccc(C(F)(F)F)c(N)n3)c(F)cc2c1=O)Nc1cn[nH]c(=O)c1C(F)(F)F [Example 213] | 11.5
11 | C[C@@H](CCCn1ccc2cc(-c3ncc(C(F)F)c(NCCO)n3)c(F)cc2c1=O)Nc1cn[nH]c(=O)c1C(F)(F)F [Example 222, (S)-6-(5-(difluoromethyl)-4-((2-hydroxyethyl)amino)pyrimidin-2-yl)-7-fluoro-2-(4-((6-oxo-5-(trifluoromethyl)-1,6-dihydropyridazin-4-yl)amino)pentyl)isoquinolin-1(2H)-one] | 258
12 | C[C@@H](CCCn1ccc2cc(-c3ncc(C(F)F)c(N[C@@H]4C[C@@H]4F)n3)c(F)cc2c1=O)Nc1cn[nH]c(=O)c1C(F)(F)F [Example 223, 6-(5-(difluoromethyl)-4-(((1R,2S)-2-fluorocyclopropyl)amino)pyrimidin-2-yl)-7-fluoro-2-((S)-4-((6-oxo-5-(trifluoromethyl)-1,6-dihydropyridazin-4-yl)amino)pentyl)isoquinolin-1(2H)-one] | 33.3
13 | C[C@@H](CCCn1ccc2cc(-c3ccc(C(F)F)c(N)n3)c(F)cc2c1=O)Nc1cn[nH]c(=O)c1C(F)(F)F [Example 224, (S)-6-(6-amino-5-(difluoromethyl)pyridin-2-yl)-7-fluoro-2-(4-((6-oxo-5-(trifluoromethyl)-1,6-dihydropyridazin-4-yl)amino)pentyl)isoquinolin-1(2H)-one] | 6.14
14 | C[C@@H](CCCn1ccc2cc(-c3ncc4c(n3)CS(=O)(=O)C4)c(F)cc2c1=O)Nc1cn[nH]c(=O)c1C(F)(F)F [Example 225, (S)-6-(6,6-dioxido-5,7-dihydrothieno[3,4-d]pyrimidin-2-yl)-7-fluoro-2-(4-((6-oxo-5-(trifluoromethyl)-1,6-dihydropyridazin-4-yl)amino)pentyl)isoquinolin-1(2H)-one] | 957
15 | O=c1[nH]ncc(N[C@H]2CCC[C@@H](Cn3ccc4cc(-c5ncc(C(F)F)cn5)c(F)cc4c3=O)C2)c1C(F)(F)F [Example 226, 6-[5-(difluoromethyl)pyrimidin-2-yl]-7-fluoro-2-[[(1R,3S)-3-[[6-oxo-5-(trifluoromethyl)-1H-pyridazin-4-yl]amino]cyclohexyl]methyl]isoquinolin-1-one] | 5.34
16 | Nc1nc(-c2cc3ccn(C[C@H]4CCC[C@H](Nc5cn[nH]c(=O)c5C(F)(F)F)C4)c(=O)c3cc2F)ncc1C(F)(F)F [Example 227, 6-(4-amino-5-(trifluoromethyl)pyrimidin-2-yl)-7-fluoro-2-(((1S,3S)-3-((6-oxo-5-(trifluoromethyl)-1,6-dihydropyridazin-4-yl)amino)cyclohexyl)methyl)isoquinolin-1(2H)-one] | 15.7
17 | O=c1[nH]ncc(N[C@H]2CCC[C@H](Cn3ccc4cc(-c5ncc(C(F)(F)F)cn5)c(F)cc4c3=O)C2)c1C(F)(F)F [Example 228, 7-fluoro-2-(((1S,3S)-3-((6-oxo-5-(trifluoromethyl)-1,6-dihydropyridazin-4-yl)amino)cyclohexyl)methyl)-6-(5-(trifluoromethyl)pyrimidin-2-yl)isoquinolin-1(2H)-one] | 10000
18 | O=c1[nH]ncc(N[C@H]2COC[C@@H](Cn3ccc4cc(-c5ncc(C(F)(F)F)cn5)c(F)cc4c3=O)C2)c1C(F)(F)F [Example 229, 7-fluoro-2-(((3R,5R)-5-((6-oxo-5-(trifluoromethyl)-1,6-dihydropyridazin-4-yl)amino)tetrahydro-2H-pyran-3-yl)methyl)-6-(5-(trifluoromethyl)pyrimidin-2-yl)isoquinolin-1(2H)-one] | 72.5
19 | Nc1nc(-c2cc3ccn(C[C@@H]4COC[C@H](Nc5cn[nH]c(=O)c5C(F)(F)F)C4)c(=O)c3cc2F)ncc1C(F)(F)F [Example 230, 6-(4-amino-5-(trifluoromethyl)pyrimidin-2-yl)-7-fluoro-2-(((3R,5R)-5-((6-oxo-5-(trifluoromethyl)-1,6-dihydropyridazin-4-yl)amino)tetrahydro-2H-pyran-3-yl)methyl)isoquinolin-1(2H)-one] | 115

Results, then the compound that gave them:

Row | EC50 [nM] | SMILES
20 | 29.1 | C[C@@H](CCCn1cnc2cc(-c3ncc(Cl)cn3)c(F)cc2c1=O)Nc1cn[nH]c(=O)c1C(F)(F)F [Example 200, (S)-7-(5-chloropyrimidin-2-yl)-6-fluoro-3-(4-((6-oxo-5-(trifluoromethyl)-1,6-dihydropyridazin-4-yl)amino)pentyl)quinazolin-4(3H)-one]
21 | 206 | COc1cnc(-c2cc3ncn(CCC[C@H](C)Nc4cn[nH]c(=O)c4C(F)(F)F)c(=O)c3cc2F)nc1N1CC(O)C1 [Example 208]
22 | 41.2 | COc1cnc(-c2cc3ncn(CCC[C@H](C)Nc4cn[nH]c(=O)c4C(F)(F)F)c(=O)c3cc2F)nc1N1CC(C#N)C1 [Example 209]
23 | 28.3 | COc1cnc(-c2cc3ncn(CCC[C@H](C)Nc4cn[nH]c(=O)c4C(F)(F)F)c(=O)c3cc2F)nc1N1CC(F)(F)C1 [Example 211]
24 | 17.9 | CNc1nc(-c2cc3ccn(CCC[C@H](C)Nc4cn[nH]c(=O)c4C(F)(F)F)c(=O)c3cc2F)ncc1OC [Example 214]
25 | 36.1 | CCNc1nc(-c2cc3ccn(CCC[C@H](C)Nc4cn[nH]c(=O)c4C(F)(F)F)c(=O)c3cc2F)ncc1OC [Example 215, (S)-6-(4-(ethylamino)-5-methoxypyrimidin-2-yl)-7-fluoro-2-(4-((6-oxo-5-(trifluoromethyl)-1,6-dihydropyridazin-4-yl)amino)pentyl)isoquinolin-1(2H)-one]
26 | 39.3 | COc1cnc(-c2cc3ccn(CCC[C@H](C)Nc4cn[nH]c(=O)c4C(F)(F)F)c(=O)c3cc2F)nc1NC1CC1 [Example 216, (S)-6-(4-(cyclopropylamino)-5-methoxypyrimidin-2-yl)-7-fluoro-2-(4-((6-oxo-5-(trifluoromethyl)-1,6-dihydropyridazin-4-yl)amino)pentyl)isoquinolin-1(2H)-one]
27 | 1580 | COc1cnc(-c2cc3ccn(CCC[C@H](C)Nc4cn[nH]c(=O)c4C(F)(F)F)c(=O)c3cc2F)nc1NC1COC1 [Example 217, (S)-7-fluoro-6-(5-methoxy-4-(oxetan-3-ylamino)pyrimidin-2-yl)-2-(4-((6-oxo-5-(trifluoromethyl)-1,6-dihydropyridazin-4-yl)amino)pentyl)isoquinolin-1(2H)-one]
28 | 1100 | COc1cnc(-c2cc3ccn(CCC[C@H](C)Nc4cn[nH]c(=O)c4C(F)(F)F)c(=O)c3cc2F)nc1NCCO [Example 218, (S)-7-fluoro-6-(4-((2-hydroxyethyl)amino)-5-methoxypyrimidin-2-yl)-2-(4-((6-oxo-5-(trifluoromethyl)-1,6-dihydropyridazin-4-yl)amino)pentyl)isoquinolin-1(2H)-one]
29 | 430 | COc1cnc(-c2cc3ccn(CCC[C@H](C)Nc4cn[nH]c(=O)c4C(F)(F)F)c(=O)c3cc2F)nc1NC1(C(F)F)CC1 [Example 219, (S)-6-(4-((1-(difluoromethyl)cyclopropyl)amino)-5-methoxypyrimidin-2-yl)-7-fluoro-2-(4-((6-oxo-5-(trifluoromethyl)-1,6-dihydropyridazin-4-yl)amino)pentyl)isoquinolin-1(2H)-one]
30 | 195 | COc1cnc(-c2cc3ncn(CCC[C@H](C)Nc4cn[nH]c(=O)c4C(F)(F)F)c(=O)c3cc2F)nc1NC1CC1 [Example 220, (S)-7-(4-(cyclopropylamino)-5-methoxypyrimidin-2-yl)-6-fluoro-3-(4-((6-oxo-5-(trifluoromethyl)-1,6-dihydropyridazin-4-yl)amino)pentyl)quinazolin-4(3H)-one]
31 | 15.3 | C[C@@H](CCCn1ccc2cc(-c3ncc(C(F)F)c(NC4CC4)n3)c(F)cc2c1=O)Nc1cn[nH]c(=O)c1C(F)(F)F [Example 221, (S)-6-(4-(cyclopropylamino)-5-(difluoromethyl)pyrimidin-2-yl)-7-fluoro-2-(4-((6-oxo-5-(trifluoromethyl)-1,6-dihydropyridazin-4-yl)amino)pentyl)isoquinolin-1(2H)-one]
